# Data reported in patent US7622266B2, “Identification of a synthetic ligand for retinoic acid receptor beta” (Institut Pasteur, priority 1987, dated 2009).
# Numbered stars: 1 amine (or outer) side, 2 acyl side, 3 side chain; on linkers, the order of the positions; unused ones are H or OH. Bridge positions count the residues as written; N and C are the ends. Square brackets hold non-standard residues; d marks the D form. Peptide text beside a SMILES is read from it. I, II: the chains in the order shown. Actinocin(9to1) = Cc1c2oc3c(C)ccc(C(=O)[*:1])c3nc-2c(C(=O)[*:2])c(N)c1=O; NMeV = CN[C@H](C(=O)O)C(C)C; Sar = CNCC(=O)O
# Tests used:
# [1] = test system: transglutaminase expression in HL60 cells; details: read-out: ED 50 of RA-dependent transglutaminase expression; cited from earlier work
# [2] = test system: RAR β mRNAs in PLC/PRF/5 cells; type: cell-based, human
# Experimental: (§1) More particularly, semi-confluent cells were grown for 6 hr in charcoal stripped medium and retinoic acid was then added to the medium at various concentrations (10^−10 M to 10^−6 M) for 4 hr. Control cells were treated with ethanol (E). Northern-blotting was performed as described in connection with FIG. 9, except that 30 μg of total RNA was used.
# (§2) Exposure time was 12 hr for the β probe (FIG. 10B, lower panel) and four days for the α probe (FIG. 10B, upper panel).
# (§3) Northern-blotting was carried on using 30 ug of total RNA. […] Exposure times were the same as for the experiments in FIG. 10.
# (§4) Human tissue samples were obtained from early autopsies and kept at −80° C. prior to extraction. The HEPG 2 and PLC/PRF/5 hepatoma cell-lines were grown in Dulbecco's modified Eagle's medium with 10% fetal calf serum, glutamine, and antibiotics, in 5% CO2.
# (§5) The RNA was prepared by the hot phenol procedure (Maniatis et al., 1982). Poly(A)^+ mRNA was prepared by oligo(dT)-cellulose ilchromatography. For Northern-blot analysis, total RNA (30 μg) or poly(A)^+ mRNA (5 μg) was denatured by glyoxal and fractionated on a 1.2% agarose gel (Maniatis et al., 1982). The nucleic acid was transferred to nylon membranes (Amersham) by blotting and attached by UV exposure plus baking.
# (§6) The two cDNA inserts were subcloned into M13 and used to generate high specific activity (greater than 10^9 c.p.m./μg) single-stranded probes by elongation of a sequencing primer with ^32P labelled dTTP (3000 Ci/mmol) and unlabelled nucleotides by Klenow polymerase. The resulting double-stranded DNA was digested using a unique site in the vector, fractioned on a urea/acrylamide sequencing gel, and the labelled single-stranded insert electroeluted. These probes (5×10^6 cpm/ml) were hybridized to the filters in 7% (w/v) sodium dodecyl sulfate (SDS), 0.5 M NaPO4 pH 6.5, 1 mM ethylenediaminetetraacetate (EDTA), and 1 mg/ml bovine serum albumin (BSA) at 68° C. overnight. The filters were washed in 1% SDS, 50 mM NaCl, 1 mM EDTA at 68° C. for 10 min and autoradiographed at −70° C. using Kodak XAR films and intensifying screens. A mouse β actin probe was used to rehybridize the filters and check that all lanes contained equal amounts of RNA.
# The relative intensity of hybridization signals in Northern-blotting and run-on experiments was estimated using a Hoefer scanning densitometer and the appropriate computer program.
# [3] = molecular target: T1, hap-ER chimaeric receptor (Homo sapiens, UniProt P10826, A104S/D127T/F149Y/F89A/G110A/H125P/I121D/K118G/K128N/K94Y/M120N/N119H/N129Q/N133D/N138K/Q146R/Q92N/R113K/R126A/R139S/S103W/S95A/T123M/T136R/V131T/V135N/Y142A); assay: hap-ER chimaera trans-activation of oestrogen-responsive reporter gene (vit-tk-CAT); type: cell-based; details: RA at physiological concentrations
# T1 construct: expressed in transfected cells
# T1 sequence (P10826 1-448 isoform P10826-2 F82A/Q85N/K87Y/S88A/S96W/A97S/G103A/R106K/K111G/N112H/M113N/I114D/T116M/H118P/R119A/D120T/K121N/N122Q/V124T/N126D/V128N/T129R/N131K/R132S/Y135A/Q139R/F142Y): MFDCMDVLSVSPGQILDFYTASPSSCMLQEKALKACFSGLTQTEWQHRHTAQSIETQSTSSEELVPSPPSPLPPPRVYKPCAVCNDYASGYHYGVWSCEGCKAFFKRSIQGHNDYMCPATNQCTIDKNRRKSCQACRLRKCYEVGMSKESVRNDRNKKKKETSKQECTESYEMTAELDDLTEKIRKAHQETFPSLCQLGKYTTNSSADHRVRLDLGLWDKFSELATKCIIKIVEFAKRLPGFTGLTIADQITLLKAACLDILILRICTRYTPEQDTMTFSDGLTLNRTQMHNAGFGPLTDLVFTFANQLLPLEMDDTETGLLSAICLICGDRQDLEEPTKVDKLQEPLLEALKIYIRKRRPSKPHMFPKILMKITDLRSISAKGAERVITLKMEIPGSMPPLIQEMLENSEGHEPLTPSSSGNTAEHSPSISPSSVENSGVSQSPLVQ
# Experimental: To test the possibility that the hap protein might also be a retinoid receptor, a chimaeric receptor was created by replacing the putative DNA binding domain of hap with that of the human oestrogen receptor (ER). The resulting hap-ER chimaera was then tested for its ability to trans-activate an oestrogen-responsive reporter gene (vit-tk-CAT) in the presence of possible receptor ligands. […] See Nature, 332:850-853 (1988).
# [4] = test system: RAR α mRNAs in PLC/PRF/5 cells; assay: Northern blot of RAR α mRNAs in PLC/PRF/5 cells; type: cell-based, human; details: RA up to 10^−6 M
# Experimental: as §1, §2, §3, §4
# as §5, with “baking. […]” for “baking.”
# [5] = test system: RAR β mRNAs in HEPG2 hepatoma cell-line; assay: Northern blot of RAR β mRNAs in HEPG2 cells; type: cell-based, human
# Experimental: as §4, §5
# as §6, with “The filters were washed in 1% SDS, 50 mM NaCl, 1 mM EDTA at 68° C. for 10 min and autoradiographed at −70° C. using Kodak XAR films and intensifying screens. A mouse β actin probe was used to rehybridize the filters and check that all lanes contained equal amounts of RNA.” left out
# RAR β = details: cited from earlier work
# [6] = test system: nuclear extracts from HeLa cells; assay: T3 binding positive control with HeLa nuclear extracts
# From the text: The results were-negative as well when the experiment was repeated with (3H)-retinol, -retinoic acid, and -testosterone, which represent three putative ligands for hap whose receptors have not yet been cloned. Although it cannot excluded that hap may encode a hormone independent transcriptional activator, it is more likely that hap product, i.e. the hap protein, is α receptor for a presently unidentified hormone.
# [7] = molecular target: T2, in vitro translated hap polypeptide (Homo sapiens, UniProt P10826); assay: Hormone-binding assay with in vitro translated hap polypeptide; details: reticulocyte lysate; for specific binding of (125I)-labelled thyroid hormone to in vitro translated hap polypeptide: 0° C., filtration; for binding of (3H)-labelled ligand to in vitro translated hap polypeptide: overnight 0° C., Dextran coated charcoal
# T2 construct: made in house; host or cells: rabbit reticulocyte lysate (in vitro translation of T7 transcripts of pCOD20)
# T2 sequence (P10826 1-448 isoform P10826-2): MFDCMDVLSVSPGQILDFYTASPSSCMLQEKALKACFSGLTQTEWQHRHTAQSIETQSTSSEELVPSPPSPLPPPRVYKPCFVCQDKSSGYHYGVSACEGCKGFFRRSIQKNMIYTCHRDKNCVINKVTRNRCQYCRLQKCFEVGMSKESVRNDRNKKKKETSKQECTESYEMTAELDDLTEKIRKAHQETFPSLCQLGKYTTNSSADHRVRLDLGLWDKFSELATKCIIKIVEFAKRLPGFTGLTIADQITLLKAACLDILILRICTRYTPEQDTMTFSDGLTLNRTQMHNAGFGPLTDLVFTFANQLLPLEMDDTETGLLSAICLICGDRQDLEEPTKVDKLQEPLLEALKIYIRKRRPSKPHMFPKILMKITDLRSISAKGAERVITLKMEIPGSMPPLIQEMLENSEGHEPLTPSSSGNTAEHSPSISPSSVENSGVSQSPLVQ
# From the text: The ability to express functional receptors in vitro from cloned c-erbA/steroid receptor genes led to the use of an in vitro translation assay to identify a putative hap ligand.
# The coding region of hap was cloned into pTZ18 plasmid vector to allow in vitro transcription with the T7 RNA polymerase and subsequent translation in reticulocyte lysates. More particularly, ^35S-methionine-labelled products synthesized using T7 polymerase-catalysed RNA transcripts were separated on a 12% SDS-polyacrylamide gel, which was fluorographed. (DMSO-PPO). The lanes in FIG. 5 are as follows:
# pCOD20 and pCOD14 were linearized with HindIII. Capped mRNA was generated using 5 ug of DNA, 5 uM rNTP, 25 mM DTT, 100 U RNAsin (Promega), 50 U T7 Pol (Genofit) in 40 mM Tris pH 8, 8mM MgCl2, 2 mM spermidine, 50 mM NaCl, in 100 ul at 37° C. Capping was performed by omitting GTP and adding CAP (m^7 G (5′) ppp (5′) G) (Pharmacia) for the 15 first minutes of the reaction.
# After at least 2 h of incubation at 0° C., free was separated from bound by filtration through millipore HAWP 02500 filters using 10 ml of ice cold buffer. For testosterone, retinol, retinoic acid 10 ul of lysate were added to 45 lambda of 20 mM Tris pH 7.3, 1 mM EDTA, 50 mM NaCl, 2 mM beta-mercaptoethanol and […], […] or […] (81 ci/mmol; 60 Ci/mmol; 46 Ci/mmol; Amersham). After an overnight incubation at 0° C. free was separated from bound by Dextran coated charcoal (0.5% Norit A−0.05% T70) and centrifugation. All experiments were performed in duplicates and parallel experiments were performed with 100 fold excess corresponding cold hormone.
smiles,measurement,setting,value
"CC1=C(/C=C/C(C)=C/C=C/C(C)=C/C(=O)O)C(C)(C)CCC1 [RA, All-trans-retinoic acid]",EC50,[1],50 nM
same,latency of induction of RAR β mRNAs,[2]; RA 10^−6 M,one
same,time after which induction of RAR β mRNAs is complete,[2]; RA 10^−6 M,four
same,magnitude of the RA-induced upregulation of RAR β mRNAs,"[2]; densitometry of Northern blot, 4 hr",10 fold
same,inducing the expression of the reporter gene by the hap-ER chimaeric receptor,[3],effective
same,effect on the level of RAR α mRNAs,[4],no effect
same,RA-induced stimulation of the levels of RAR β mRNAs,[5],50 fold
"N[C@@H](Cc1cc(I)c(Oc2ccc(O)c(I)c2)c(I)c1)C(=O)O [T3, triiodothyronine]",binding to nuclear extracts from HeLa cells,[6],detected
"N[C@@H](Cc1cc(I)c(Oc2cc(I)c(O)c(I)c2)c(I)c1)C(=O)O [T4, thyroxine]",specific binding of (125I)-labelled thyroid hormone to in vitro translated hap polypeptide,[7],No specific fixation
"Cc1c2oc3c(C)ccc(C(=O)N[C@@H]4C(=O)N[C@H](C(C)C)C(=O)N5CCC[C@H]5C(=O)N(C)CC(=O)N(C)[C@@H](C(C)C)C(=O)O[C@@H]4C)c3nc-2c(C(=O)N[C@@H]2C(=O)N[C@H](C(C)C)C(=O)N3CCC[C@H]3C(=O)N(C)CC(=O)N(C)[C@@H](C(C)C)C(=O)O[C@@H]2C)c(N)c1=O [actinomycin D] (I: T[dV]P[Sar][NMeV] / II: T[dV]P[Sar][NMeV]; ester I:1-I:C, II:1-II:C; linker I:N-II:N via Actinocin(9to1))",effect of inhibitor on the RA-induced increase in the levels of RAR β transcripts,"[2]; RA 10^−6M, CH 10 μg/ml or AC 5 μg/ml, 4 hr",abolished
CC1=C(/C=C/C(C)=C/C=C/C(C)=C/CO)C(C)(C)CCC1 [retinol],binding of (3H)-labelled ligand to in vitro translated hap polypeptide,[7],negative
"N[C@@H](Cc1ccc(Oc2cc(I)c(O)c(I)c2)c(I)c1)C(=O)O [reverse T3, 3,3′, 5′-triiodo-thyronine]",specific binding of (125I)-labelled thyroid hormone to in vitro translated hap polypeptide,[7],No specific fixation
C[C@]12CC[C@H]3[C@@H](CCC4=CC(=O)CC[C@@]43C)[C@@H]1CC[C@@H]2O [testosterone],binding of (3H)-labelled ligand to in vitro translated hap polypeptide,[7],negative
